# Values quoted from earlier work in patent publication US9695131B2, “Substituted uracils as chymase inhibitors” (Bayer Pharma Aktiengesellschaft, priority 2013, dated 2017).
# Test system: hamsters with myocardial infarction
smiles,measurement,value
CCOc1ccccc1CC1C(=O)N(C(=O)NC(c2ccc(C)cc2)c2ccc(C)cc2)C1Oc1ccc(C(=O)O)cc1 (stereo not drawn) [BCEAB],chymase activity,reduced
same,haemodynamics,improved
same,mortality,reduced
